Activity calls are given as the source filed them. The rule behind the calls is not given here.
Assays:
[1] = tested on: U-251; experiment: Cytotoxicity against human U-251MG cells assessed as reduction in cell viability measured after 48 hrs by alamar blue assay; type: functional, cell-based; details: U-251, 48 h
[2] = tested on: U-251; experiment: Cytotoxicity against cold atmospheric plasma (CAP)-treated human U-251MG cells assessed as decrease in cell viability treated with CAP for 30 secs followed by incubated with compound for 48 hrs by alamar blue assay; type: functional, cell-based; details: U-251, 48 h
[3] = tested on: U-251; experiment: Prodrug activation in human U-251MG cells assessed as enhancement of cytotoxicity pretreated with prodrug followed by cold atmospheric plasma (CAP) treatment for 10 to 40 sec in culture medium and measured after 48 hrs by alamar blur assay; type: functional, cell-based
[4] = tested on: U-251; experiment: Cytotoxicity against human U-251MG cells assessed as decrease in cell viability by measuring combination index treated with cold atmospheric plasma for 10 secs followed by incubated with compound for 48 hrs by alamar blue assay; type: functional
[5] = tested on: U-251; experiment: Cytotoxicity against human U-251MG cells assessed as reduction in cell viability at 0.3 uM measured after 48 hrs by alamar blue assay relative to control; type: functional
[6] = tested on: U-251; experiment: Cytotoxicity against human U-251MG cells assessed as reduction in cell viability at 290 uM measured after 48 hrs by alamar blue assay relative to control; type: functional
[7] = tested on: U-251; experiment: Cytotoxicity against human U-251MG cells assessed as reduction in cell viability at 2000 uM measured after 48 hrs by alamar blue assay relative to control; type: functional
[8] = tested on: U-251; experiment: Cytotoxicity against human U-251MG cells assessed as decrease in live cells stained with green (Calcein-AM) at 0.3 to 2000 uM measured after 48 hrs by Live/dead staining based fluorescent analysis; type: functional, cell-based; details: dose 0.3-2000 µM
[9] = tested on: U-251; experiment: Cytotoxicity against human U-251MG cells assessed as increase in dead cells stained with red (EthD-1) at 0.3 to 2000 uM measured after 48 hrs by Live/dead staining based fluorescent analysis; type: functional, cell-based; details: dose 0.3-2000 µM
[10] = tested on: U-251; experiment: Cytotoxicity against human U-251MG cells assessed as distinct morphological changes at 0.3 to 2000 uM measured after 48 hrs by Live/dead staining based fluorescent analysis; type: functional, cell-based; details: dose 0.3-2000 µM
[11] = tested on: HEK293; experiment: Cytotoxicity against human HEK293 cells assessed as reduction in cell viability measured after 48 hrs by alamar blue assay; type: functional, cell-based; details: HEK293, 48 h
[12] = Prodrug activation in human U-251MG cells assessed as increase in cold atmospheric plasma (CAP) induced ROS-mediated cytotoxicity treated with CAP for 30 secs in DMSO followed by incubated with compound for 48 hrs by alamar blue assay; type: functional, cell-based; details: U-251, 48 h
[13] = Prodrug activation in human U-251MG cells assessed as increase in cold atmospheric plasma (CAP) induced ROS-mediated cytotoxicity treated with CAP for 10 mins in DMSO followed by incubated with compound for 48 hrs by alamar blue assay; type: functional, cell-based
[14] = Prodrug activation in human U-251MG cells assessed as increase in cold atmospheric plasma (CAP) induced ROS-mediated cytotoxicity treated with CAP for 10 secs followed by incubated with compound for 48 hrs by alamar blue assay; type: functional, cell-based; details: U-251, 48 h
[15] = Prodrug activation in human U-251MG cells assessed as increase in cold atmospheric plasma (CAP) induced ROS-mediated cytotoxicity treated with CAP for 20 secs followed by incubated with compound for 48 hrs by alamar blue assay; type: functional, cell-based; details: U-251, 48 h
[16] = Prodrug activation in human U-251MG cells assessed as increase in cold atmospheric plasma (CAP) induced ROS-mediated cytotoxicity treated with CAP for 30 secs followed by incubated with compound for 48 hrs by alamar blue assay; type: functional, cell-based; details: U-251, 48 h
[17] = Prodrug activation in human U-251MG cells assessed as increase in cold atmospheric plasma (CAP) induced ROS-mediated cytotoxicity treated with CAP for 40 secs followed by incubated with compound for 48 hrs by alamar blue assay; type: functional, cell-based; details: U-251, 48 h
[18] = Prodrug activation in human U-251MG cells assessed as increase in cold atmospheric plasma (CAP) induced ROS-mediated cytotoxicity treated with CAP for 40 secs followed by incubated with compound for 48 hrs in presence of NAC by alamar blue assay; type: functional, cell-based; details: U-251, 48 h
[19] = tested on: U-251; experiment: Prodrug activation in human U-251MG cells assessed as cell cytotoxicity treated with prodrug in overnight storage cold atmospheric plasma (CAP) activated culture medium for 48 hrs by Alamar blue assay; type: functional, cell-based
[20] = tested on: U-251; experiment: Prodrug activation in CAP treated human U-251MG cells assessed as cell cytotoxicity incubated with cold atmospheric plasma (CAP) treated culture medium for 0 to 5 hrs followed by incubation with fresh medium containing prodrug for 48 hrs by Alamar blue assay; type: functional, cell-based
[21] = Prodrug activation in human U-251MG cells assessed as decrease in cell viability at low concentrations in presence of AAPH measured after 48 hrs by Alamar blue assay; type: functional
[22] = Prodrug activation in human HEK293 cells assessed as decrease in cell viability at low concentrations in presence of AAPH measured after 48 hrs by Alamar blue assay; type: functional
[23] = tested on: U-251; experiment: Prodrug activation in human U-251MG cells assessed as enhancement of cytotoxicity at >200 uM in presence of 3 mM AAPH measured after 48 hrs by Alamar blue assay; type: functional, cell-based; details: dose microM >200, time 48.0 hrs
[24] = tested on: HEK293; experiment: Prodrug activation in human HEK293 cells assessed as enhancement of cytotoxicity at >200 uM in presence of 3 mM AAPH measured after 48 hrs by Alamar blue assay; type: functional, cell-based; details: dose microM >200, time 48.0 hrs
[25] = tested on: U-251; experiment: Prodrug activation in human U-251MG cells assessed as enhancement of cytotoxicity at >200 uM combined with 0.5 mMAAPH measured after 48 hrs by Alamar blue assay; type: functional, cell-based; details: dose microM >200, time 48.0 hrs
[26] = tested on: HEK293; experiment: Prodrug activation in human HEK293 cells assessed as enhancement of cytotoxicity at >200 uM combined with 0.5 mM AAPH measured after 48 hrs by Alamar blue assay; type: functional, cell-based; details: dose microM >200, time 48.0 hrs
[27] = tested on: U-251; experiment: Cytotoxicity against human U-251MG cells assessed as decrease in cell viability by measuring combination index treated with cold atmospheric plasma for 20 secs followed by incubated with compound for 48 hrs by alamar blue assay; type: functional
[28] = tested on: U-251; experiment: Cytotoxicity against human U-251MG cells assessed as decrease in cell viability by measuring combination index treated with cold atmospheric plasma for 30 secs followed by incubated with compound for 48 hrs by alamar blue assay; type: functional
[29] = tested on: U-251; experiment: Cytotoxicity against human U-251MG cells assessed as decrease in cell viability by measuring combination index treated with cold atmospheric plasma for 40 secs followed by incubated with compound for 48 hrs by alamar blue assay; type: functional
[30] = tested on: U-251; experiment: Cytotoxicity against human U-251MG cells assessed as decrease in cell viability incubated for 6 days by alamar blue assay; type: functional, cell-based; details: U-251, 144 h
[31] = tested on: U-251; experiment: Cytotoxicity against cold atmospheric plasma (CAP)-treated human U-251MG cells assessed as decrease in cell viability treated with CAP for 15 secs followed by incubated with compound for 6 days by alamar blue assay; type: functional, cell-based; details: U-251, 144 h
[32] = tested on: U-251; experiment: Cytotoxicity against cold atmospheric plasma (CAP)-treated human U-251MG cells assessed as decrease in cell viability treated with CAP for 30 secs followed by incubated with compound for 6 days by alamar blue assay; type: functional, cell-based; details: U-251, 144 h

CC(C)c1cc2[nH]c(-c3cc(C(F)(F)F)cc(C(F)(F)F)c3)cc(=O)n2n1
IC50 [1]: 42.9 µM
IC50 [2]: 19 µM

CCCCc1cc2[nH]c(-c3cc(C(F)(F)F)cc(C(F)(F)F)c3)cc(=O)n2n1
IC50 [1]: 11.3 µM
IC50 [2]: 11.4 µM

Cc1cc(C)cc(-c2cc(=O)n3nc(C)cc3[nH]2)c1
Activity [3]: inactive

Cc1cc(C)cc(-c2cc(=O)n3nc(C(C)C)cc3[nH]2)c1
IC50 [1]: 502 µM
IC50 [2]: 609 µM

COc1ccc(-c2cc(=O)n3nc(C(C)C)cc3[nH]2)cc1
IC50 [1]: 197 µM
IC50 [2]: 127 µM

O=c1cc(-c2ccccc2)[nH]c2cc(-c3cccc(Cl)c3)nn12
IC50 [1]: 23.3 µM
IC50 [2]: 38.2 µM

O=c1cc(-c2ccccc2)[nH]c2cc(-c3ccccc3)nn12
IC50 [1]: 77.7 µM
IC50 [2]: 73.6 µM

Cc1ccc(-c2cc3[nH]c(-c4ccccc4)cc(=O)n3n2)cc1
IC50 [1]: 148 µM
IC50 [2]: 86.7 µM

CC(C)(C)c1cc2[nH]c(-c3cc(C(F)(F)F)cc(C(F)(F)F)c3)cc(=O)n2n1
IC50 [1]: 367 µM
IC50 [2]: 462 µM

O=c1cc(-c2ccccc2)[nH]c2cc(-c3ccc(F)cc3)nn12
IC50 [1]: 74.6 µM
IC50 [2]: 44.4 µM

Cc1c(-c2ccccc2)[nH]c2cc(C(C)C)nn2c1=O
IC50 [1]: 137 µM
IC50 [2]: 86.3 µM

COc1ccc(-c2cc(=O)n3nc(-c4ccccc4)cc3[nH]2)cc1
IC50 [1]: 13.4 µM
IC50 [2]: 5670 µM

CC(C)c1cc2[nH]c(-c3ccc([N+](=O)[O-])cc3)cc(=O)n2n1
IC50 [1]: 25.5 µM
IC50 [2]: 12.9 µM

Cc1cc2[nH]c(-c3ccccc3)cc(=O)n2n1
CI [4]: 0.311
IC50 [1]: 293 µM
IC50 [2]: 56.8 µM
Activity [5]: 100%
Activity [6]: 50%
Activity [7]: 10%
Activity [8]: Active
Activity [9]: Active
Activity [10]: Active
IC50 [11]: 123 µM
IC50 [12]: 215 µM
IC50 [13]: 246 µM
IC50 [14]: 54.4 µM
IC50 [15]: 31.1 µM
IC50 [16]: 39.2 µM
IC50 [17]: 37.1 µM
IC50 [18]: 95.7 µM
Activity [19]: inactive
Activity [20]: inactive
Activity [21]: 50%
Activity [22]: 50%
Activity [23]: inactive
Activity [24]: inactive
Activity [25]: inactive
Activity [26]: inactive
CI [27]: 0.3352
CI [28]: 0.4756
CI [29]: 0.578

Cn1nnc2c(C(N)=O)ncn2c1=O [TEMOZOLOMIDE]
IC50 [30]: 12.7 µM
IC50 [31]: 7.28 µM
IC50 [32]: 6.43 µM

CC(C)(C)c1cc2[nH]c(C(C)(C)C)cc(=O)n2n1
IC50 [1]: 941 µM
IC50 [2]: 62.4 µM
